In patent US9265845B2, “Imaging methods using engineered integrin binding peptides” (The Board of Trustees of the Leland Stanford Junior …, priority 2006, dated 2016):
Positions of bridges follow the written chain, without caps; N, C: chain ends. Residues, ends and D or L forms follow the SMILES beside them.

How the values were obtained:
U87MG glioblastoma cells = experiment: Direct equilibrium binding titration on U87MG glioblastoma cells; settings: for Kd: recombinant peptides with FLAG and His tags, 3 h at 4° C.
Method: Direct equilibrium binding titrations of the recombinant engineered AgRP peptides were performed on U87MG glioblastoma cells. Peptides were incubated with cells for 3 h at 4° C., followed by staining with a fluorescein-conjugated anti-His antibody and analysis by flow cytometry. Equilibrium binding constant (KD) values were obtained by fitting plots of concentration versus mean fluorescence intensity to a sigmoidal curve using KaleidaGraph software.
(§1) All cell lines were cultured at 37° C. with 5% CO2. Adherent U87MG cells were obtained from ATCC and cultured in DMEM media (Gibco 11995) supplemented with 10% fetal bovine serum. Untransfected K562 cells (α5 β1-positive) were obtained from ATCC and cultured in suspension in IMDM media (Gibco 12440) supplemented with 10% fetal bovine serum. K562 cells stably transfected with αv β3, αv β5, or αiib β3 integrins were obtained from S. Blystone (Blystone, S. D., Graham, I. L., Lindberg, F. P. & Brown, E. J. (1994). Integrin avb3 differentially regulates adhesive and phagocytic functions of the fibronectin receptor a5b1. J. Cell Biol. 127, 1129-1137) and were grown in media supplemented with 10 μg/mL geneticin. Equilibrium binding assays were performed with 10^5 cells per reaction. Cells were suspended in IBB with varying amounts of engineered AgRP peptide at 4° C. for 3 h with gentle rocking. The cells were washed and resuspended in BPBS with a 1:40 dilution of fluorescein-conjugated anti-6×-His antibody (Bethyl A190-113F) and incubated on ice for 20 min. After washing, the cells were analyzed by flow cytometry using a BD FACSCalibur instrument and CellQuest software (Becton Dickinson, Franklin Lakes, N.J.). Mean fluorescence intensity values for each cell population was plotted against concentration on a log scale. Data was fit to sigmoidal curves to obtain equilibrium dissociation constants using KaleidaGraph (Synergy Software), and is presented as average values with standard deviations. Each assay was performed a minimum of three times.

K562-αvβ3 cells = experiment: Equilibrium binding to K562 cells expressing αvβ3 integrin; settings: recombinant peptides with FLAG and His tags
Method: To determine the binding specificities of the AgRP peptides for αvβ3 integrin versus the αvβ5 and α5β1 integrins also expressed on U87MG cells, K562 leukemia cells that had been stably transfected with individual α and β integrin subunits were used. The engineered AgRP peptides were tested for binding to untransfected K562 cells, which intrinsically express α5β1 integrin. Equilibrium binding assays were performed on the untransfected K562 cells as described above for the U87MG cells. Three peptide concentrations were tested. Negligible signal over background levels (cells stained with fluorescein-conjugated anti-His antibody alone) even at 500 nM, the highest concentration tested, was observed.
The engineered AgRP peptides were tested for binding to K562 cells expressing αvβ5 αiiiβ3 or αvβ3 integrins. The peptides were tested at three concentrations with very little signal over background for cells expressing αvβ5 integrin, even at 500 nM, the highest concentration. The peptides bound weakly to the K562 cells expressing αiiβ3 integrins and, as expected, strongly to the K562 cells expressing αvβ3 integrins. In order to determine KD values for the engineered AgRP peptides against K562-αiiβ3 and K562-αvβ3 cells, binding titrations were done over a larger range of concentrations. […] KD values for peptide binding to K562-αiibβ3 cells could not be determined because binding was still increasing at the highest concentration (5 μM) of peptides tested.
as §1, with “Data was fit to sigmoidal curves to obtain equilibrium dissociation constants using KaleidaGraph (Synergy Software), and is presented as average values with standard deviations. Each assay was performed a minimum of three times.” left out

| SMILES | Kd (U87MG glioblastoma cells) | Kd (K562-αvβ3 cells) | fold improvement in affinity over the worst binder, 6C (U87MG glioblastoma cells) |
| --- | --- | --- | --- |
| CC(C)C[C@@H]1NC(=O)[C@@H]2CSSC[C@@H]3NC(=O)[C@H]([C@@H](C)O)NC(=O)[C@H](C)NC(=O)[C@H](C)NC(=O)[C@@H]4CCCN4C(=O)[C@H](CC(=O)O)NC(=O)[C@H](CSSC[C@H](NC(=O)CN)C(=O)N[C@@H](C(C)C)C(=O)N[C@@H](CCCNC(=N)N)C(=O)N[C@@H](CC(C)C)C(=O)N[C@@H](Cc4c[nH]cn4)C(=O)N[C@@H](CCC(=O)O)C(=O)N[C@@H](CO)C(=O)N2)NC(=O)[C@H](CSSC[C@@H](C(=O)N[C@@H](CCCNC(=N)N)C(=O)O)NC(=O)[C@H](Cc2ccc(O)cc2)NC(=O)[C@@H]2CSSC[C@H](NC(=O)[C@H](Cc4ccc(O)cc4)NC3=O)C(=O)N[C@@H]([C@@H](C)O)C(=O)NCC(=O)N[C@@H](CCCNC(=N)N)C(=O)NCC(=O)N[C@@H](CC(=O)O)C(=O)N[C@@H](CCC(=O)O)C(=O)N[C@@H](CCCCN)C(=O)N[C@@H](CC(C)C)C(=O)N[C@@H](CCCNC(=N)N)C(=O)N2)NC(=O)[C@@H]2CCCN2C(=O)[C@H](C(C)C)NC(=O)[C@H](CCC(N)=O)NC(=O)[C@H](CCC(N)=O)NC(=O)CNC1=O [6C] (H-GCVRLHESCLGQQVPCCDPAATCYCTGRGDEKLRCYCR-OH; disulfide 2-17, 9-23, 16-37, 25-35; N-terminus and C-terminus assumed) | 13 ± 2 nM | 15 ± 4 nM |  |
| CC(C)C[C@@H]1NC(=O)[C@@H]2CSSC[C@@H]3NC(=O)[C@H]([C@@H](C)O)NC(=O)[C@H](C)NC(=O)[C@H](C)NC(=O)[C@@H]4CCCN4C(=O)[C@H](CC(=O)O)NC(=O)[C@H](CSSC[C@H](NC(=O)CN)C(=O)N[C@@H](C(C)C)C(=O)N[C@@H](CCCNC(=N)N)C(=O)N[C@@H](CC(C)C)C(=O)N[C@@H](Cc4c[nH]cn4)C(=O)N[C@@H](CCC(=O)O)C(=O)N[C@@H](CO)C(=O)N2)NC(=O)[C@H](CSSC[C@@H](C(=O)N[C@@H](CCCNC(=N)N)C(=O)O)NC(=O)[C@H](Cc2ccc(O)cc2)NC(=O)[C@@H]2CSSC[C@H](NC(=O)[C@H](Cc4ccc(O)cc4)NC3=O)C(=O)N[C@@H](CO)C(=O)NCC(=O)N[C@@H](CCCNC(=N)N)C(=O)NCC(=O)N[C@@H](CC(=O)O)C(=O)N[C@@H](CC(N)=O)C(=O)N[C@@H](CC(=O)O)C(=O)N[C@@H](CC(C)C)C(=O)N[C@@H](C(C)C)C(=O)N2)NC(=O)[C@@H]2CCCN2C(=O)[C@H](C(C)C)NC(=O)[C@H](CCC(N)=O)NC(=O)[C@H](CCC(N)=O)NC(=O)CNC1=O [7A] (H-GCVRLHESCLGQQVPCCDPAATCYCSGRGDNDLVCYCR-OH; disulfide 2-17, 9-23, 16-37, 25-35; N-terminus and C-terminus assumed) | 0.78 ± 0.37 nM | 0.89 ± 0.36 nM | 17 fold |
| CC(C)C[C@@H]1NC(=O)[C@@H]2CSSC[C@@H]3NC(=O)[C@H]([C@@H](C)O)NC(=O)[C@H](C)NC(=O)[C@H](C)NC(=O)[C@@H]4CCCN4C(=O)[C@H](CC(=O)O)NC(=O)[C@H](CSSC[C@H](NC(=O)CN)C(=O)N[C@@H](C(C)C)C(=O)N[C@@H](CCCNC(=N)N)C(=O)N[C@@H](CC(C)C)C(=O)N[C@@H](Cc4c[nH]cn4)C(=O)N[C@@H](CCC(=O)O)C(=O)N[C@@H](CO)C(=O)N2)NC(=O)[C@H](CSSC[C@@H](C(=O)N[C@@H](CCCNC(=N)N)C(=O)O)NC(=O)[C@H](Cc2ccc(O)cc2)NC(=O)[C@@H]2CSSC[C@H](NC(=O)[C@H](Cc4ccc(O)cc4)NC3=O)C(=O)N[C@@H](C(C)C)C(=O)NCC(=O)N[C@@H](CCCNC(=N)N)C(=O)NCC(=O)N[C@@H](CC(=O)O)C(=O)N[C@@H](CC(=O)O)C(=O)N[C@@H](CC(N)=O)C(=O)N[C@@H](CC(C)C)C(=O)N[C@@H](CCCCN)C(=O)N2)NC(=O)[C@@H]2CCCN2C(=O)[C@H](C(C)C)NC(=O)[C@H](CCC(N)=O)NC(=O)[C@H](CCC(N)=O)NC(=O)CNC1=O [7E] (H-GCVRLHESCLGQQVPCCDPAATCYCVGRGDDNLKCYCR-OH; disulfide 2-17, 9-23, 16-37, 25-35; N-terminus and C-terminus assumed) | 1.4 ± 0.5 nM | 1.6 ± 1.1 nM |  |
